Key:
CDK2/Cyclin E1 = CDK2/Cyclin E1 (Homo sapiens, UniProt P24941); experiment: CDK2/Cyclin E1 Biochemical Assay (TR-FRET), 0.060 mM ATP; conditions: 0.15 μM Rb (Ser780)-biotin substrate, pH7.0, 60 min preincubation, 120 min reaction, room temperature
Procedure, shortened: (§1)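 Inhibitor concentrations up to 10 μM were preincubated with each cyclin–kinase complex for 60 minutes before ATP and biotinylated Rb (Ser780) substrate (0.15 μM) were added. After 120 minutes at room temperature, phosphorylation was quantified by HTRF and IC50 values were fitted with a four-parameter logistic equation.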

CDK1/Cyclin B1 = CDK1/Cyclin B1 (Homo sapiens, UniProt P06493); experiment: CDK1/Cyclin B1 Biochemical Assay (TR-FRET), 0.015 mM ATP; conditions: 0.15 μM Rb (Ser780)-biotin substrate, pH7.0, 60 min preincubation, 120 min reaction, room temperature
CDK1/Cyclin B1, sequence (P06493 whole entry): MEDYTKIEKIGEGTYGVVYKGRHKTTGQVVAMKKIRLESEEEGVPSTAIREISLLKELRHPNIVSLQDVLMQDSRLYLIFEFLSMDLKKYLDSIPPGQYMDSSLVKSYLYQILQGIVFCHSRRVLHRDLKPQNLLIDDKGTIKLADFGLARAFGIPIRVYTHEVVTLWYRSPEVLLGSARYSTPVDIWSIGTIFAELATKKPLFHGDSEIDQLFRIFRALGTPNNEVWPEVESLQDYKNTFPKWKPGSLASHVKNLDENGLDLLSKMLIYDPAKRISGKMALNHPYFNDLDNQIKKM
CDK1/Cyclin B1, sequence (P14635 whole entry partner): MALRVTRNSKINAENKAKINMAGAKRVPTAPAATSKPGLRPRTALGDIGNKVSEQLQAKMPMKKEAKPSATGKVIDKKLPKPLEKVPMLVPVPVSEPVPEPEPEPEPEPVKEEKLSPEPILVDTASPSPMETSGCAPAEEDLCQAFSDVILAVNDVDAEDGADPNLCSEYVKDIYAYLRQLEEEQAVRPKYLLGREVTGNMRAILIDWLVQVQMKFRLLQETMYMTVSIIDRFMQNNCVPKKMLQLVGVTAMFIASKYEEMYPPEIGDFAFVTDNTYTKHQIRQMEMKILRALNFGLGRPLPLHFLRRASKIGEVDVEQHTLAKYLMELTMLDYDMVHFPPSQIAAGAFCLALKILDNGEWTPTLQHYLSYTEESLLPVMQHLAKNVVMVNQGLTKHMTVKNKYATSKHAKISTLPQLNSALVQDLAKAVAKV
Procedure, shortened: as §1

Row | SMILES | IC50 (CDK2/Cyclin E1) [nM] | IC50 (CDK1/Cyclin B1) [nM]
1 | CC(C)NC(=O)O[C@H]1CC[C@@H](c2cc(Nc3ccc4c(c3F)CN(C3CN(C)C3)S4(=O)=O)n[nH]2)C1 (relative stereo) [Example 91, cis-3-(3-((4-fluoro-2-(1-methylazetidin-3-yl)-1,1-dioxido-2,3-dihydrobenzo[d]isothiazol-5-yl)amino)-1H-pyrazol-5-yl)cyclopentyl isopropylcarbamate] | 24 | 945
2 | CC(C)NC(=O)O[C@H]1CC[C@@H](c2cc(Nc3cc4c(cc3F)N(C)S(=O)(=O)C4)n[nH]2)C1 (relative stereo) [Example 300, cis-3-(3-((6-fluoro-1-methyl-2,2-dioxido-1,3-dihydrobenzo[c]isothiazol-5-yl)amino)-1H-pyrazol-5-yl)cyclopentyl isopropylcarbamate] | 36 | 513
3 | CC(C)NC(=O)O[C@H]1CC[C@@H](c2cc(Nc3ccc4c(c3F)CN(C[C@H](N)C(C)(C)C)S4(=O)=O)n[nH]2)C1 (relative stereo) [Example 99, cis-3-(3-((2-((R)-2-amino-3,3-dimethylbutyl)-4-fluoro-1,1-dioxido-2,3-dihydrobenzo[d]isothiazol-5-yl)amino)-1H-pyrazol-5-yl)cyclopentyl isopropylcarbamate] | 12 | 529
4 | CCNC(=O)O[C@H]1CC[C@@H](c2cc(Nc3ccc4c(c3F)CNS4(=O)=O)n[nH]2)C1 (relative stereo) [Example 141, cis-3-(3-((4-fluoro-1,1-dioxido-2,3-dihydrobenzo[d]isothiazol-5-yl)amino)-1H-pyrazol-5-yl)cyclopentyl ethylcarbamate] | 8 | 157
5 | CC(C)NC(=O)O[C@H]1CC[C@@H](c2cc(Nc3ccc4c(c3F)CN(C3CCCN(C)C3)S4(=O)=O)n[nH]2)C1 (relative stereo) [Example 61, cis-3-(3-((4-fluoro-2-(1-methylpiperidin-3-yl)-1,1-dioxido-2,3-dihydrobenzo[d]isothiazol-5-yl)amino)-1H-pyrazol-5-yl)cyclopentyl isopropylcarbamate] | 10 | 836
6 | Cc1cc(Nc2cc([C@@H]3CC[C@H](OC(=O)NC(C)C)C3)[nH]n2)cc2c1NS(=O)(=O)C2 (relative stereo) [Example 242, cis-3-(3-((7-methyl-2,2-dioxido-1,3-dihydrobenzo[c]isothiazol-5-yl)amino)-1H-pyrazol-5-yl)cyclopentyl isopropylcarbamate] | 5.1 | 70
7 | [2H]C([2H])([2H])C1c2cc(Nc3cc([C@@H]4CC[C@H](OC(=O)N[C@@H](C)CC)C4)[nH]n3)cc(F)c2N(C([2H])([2H])[2H])S1(=O)=O (relative stereo) [Example 286, cis-3-(3-((7-fluoro-1,3-bis(methyl-d3)-2,2-dioxido-1,3-dihydrobenzo[c]isothiazol-5-yl)amino)-1H-pyrazol-5-yl)cyclopentyl((S)-sec-butyl)carbamate] | 11 | 174
8 | COCC(C)(C)NC(=O)O[C@H]1CC[C@@H](c2cc(Nc3ccc4c(c3F)CN(C)S4(=O)=O)n[nH]2)C1 (relative stereo) [Example 379, cis-3-(3-((4-fluoro-2-methyl-1,1-dioxido-2,3-dihydrobenzo[d]isothiazol-5-yl)amino)-1H-pyrazol-5-yl)cyclopentyl(1-methoxy-2-methylpropan-2-yl)carbamate] | 4.5 | 230
9 | CC1(NC(=O)O[C@H]2CC[C@@H](c3cc(Nc4ccc5c(c4F)CS(=O)(=O)N5CCO)n[nH]3)C2)COC1 (relative stereo) [Example 390, cis-3-(3-((4-fluoro-1-(2-hydroxyethyl)-2,2-dioxido-1,3-dihydrobenzo[c]isothiazol-5-yl)amino)-1H-pyrazol-5-yl)cyclopentyl(3-methyloxetan-3-yl)carbamate] | 2.5 | 236
10 | CC1NS(=O)(=O)c2ccc(Nc3cc([C@@H]4CC[C@H](OC(=O)NC5(C)CC5)C4)[nH]n3)c(F)c21 (single isomer, unassigned) [Example 52c, cis-3-(3-((4-fluoro-3-methyl-1,1-dioxido-2,3-dihydrobenzo[d]isothiazol-5-yl)amino)-1H-pyrazol-5-yl)cyclopentyl(1-methylcyclopropyl)carbamate] | 1.9 | 154
11 | CC1(NC(=O)O[C@H]2CC[C@@H](c3cc(Nc4ccc5c(c4F)CN(C4CC4)S5(=O)=O)n[nH]3)C2)COC1 (relative stereo) [Example 372, cis-3-(3-((2-cyclopropyl-4-fluoro-1,1-dioxido-2,3-dihydrobenzo[d]isothiazol-5-yl)amino)-1H-pyrazol-5-yl)cyclopentyl(3-methyloxetan-3-yl)carbamate] | 6.8 | 395
12 | CC(C)NC(=O)O[C@H]1CC[C@@H](c2cc(Nc3ccc4c(c3)NS(=O)(=O)N4)n[nH]2)C1 (relative stereo) [Example 320, cis-3-(3-((2,2-dioxido-1,3-dihydrobenzo[c][1,2,5]thiadiazol-5-yl)amino)-1H-pyrazol-5-yl)cyclopentyl isopropylcarbamate] | 134 | 1760
13 | CC1(NC(=O)O[C@H]2CC[C@@H](c3cc(Nc4ccc5c(c4F)S(=O)(=O)NC5)n[nH]3)C2)CC1 (relative stereo) [Example 187, cis-3-(3-((7-fluoro-1,1-dioxido-2,3-dihydrobenzo[d]isothiazol-6-yl)amino)-1H-pyrazol-5-yl)cyclopentyl(1-methylcyclopropyl)carbamate] | 0.7 | 14
14 | CC(C)NC(=O)O[C@H]1CC[C@@H](c2cc(Nc3ccc4c(c3)C(F)(F)S(=O)(=O)N4)n[nH]2)C1 (relative stereo) [Example 334, cis-3-(3-((3,3-difluoro-2,2-dioxido-1,3-dihydrobenzo[c]isothiazol-5-yl)amino)-1H-pyrazol-5-yl)cyclopentyl isopropylcarbamate] | 84 | 899
15 | CC(C)NC(=O)O[C@H]1CC[C@@H](c2cc(Nc3ccc4c(c3F)CN(CC3CCCCC3)S4(=O)=O)n[nH]2)C1 (relative stereo) [Example 108, cis-3-(3-((2-(cyclohexylmethyl)-4-fluoro-1,1-dioxido-2,3-dihydrobenzo[d]isothiazol-5-yl)amino)-1H-pyrazol-5-yl)cyclopentyl isopropylcarbamate] | 37 | > 10000

Now from value to compound:

Row | IC50 (CDK2/Cyclin E1) [nM] | IC50 (CDK1/Cyclin B1) [nM] | SMILES
16 | 1.3 | 29 | CC1NS(=O)(=O)c2ccc(Nc3cc([C@@H]4CC[C@H](OC(=O)NC5(C)CC5)C4)[nH]n3)cc21 (single isomer, unassigned) [Example 322c, cis-3-(3-((3-methyl-1,1-dioxido-2,3-dihydrobenzo[d]isothiazol-5-yl)amino)-1H-pyrazol-5-yl)cyclopentyl(1-methylcyclopropyl)carbamate]
17 | 3.8 | 90 | O=C(NC1CCC1)O[C@H]1CC[C@@H](c2cc(Nc3ccc4c(c3F)CS(=O)(=O)N4)n[nH]2)C1 (single isomer, unassigned) [Example 399b]
18 | 24 | 1080 | CC(C)NC(=O)O[C@H]1CC[C@@H](c2cc(Nc3ccc4c(c3F)CN(C3COC3)S4(=O)=O)n[nH]2)C1 (single isomer, unassigned) [Example 133a, cis-3-(3-((4-fluoro-2-(oxetan-3-yl)-1,1-dioxido-2,3-dihydrobenzo[d]isothiazol-5-yl)amino)-1H-pyrazol-5-yl)cyclopentyl isopropylcarbamate]
19 | 1.2 | 14 | CC(C)NC(=O)O[C@H]1CC[C@@H](c2cc(Nc3ccc4c(c3)C(C)S(=O)(=O)N4)n[nH]2)C1 (single isomer, unassigned) [Example 384c, cis-3-(3-((3-methyl-2,2-dioxido-1,3-dihydrobenzo[c]isothiazol-5-yl)amino)-1H-pyrazol-5-yl)cyclopentyl isopropylcarbamate]
20 | 2 | 298 | O=C(NCCC(F)(F)F)O[C@@H]1CC[C@H](c2cc(Nc3cc4c(cc3F)S(=O)(=O)NC4)n[nH]2)C1 (single isomer, unassigned) [Example 419a]
21 | 12 | 116 | [2H]C([2H])([2H])N1c2c(F)cc(Nc3cc([C@@H]4CC[C@H](OC(=O)NC(C)C)C4)[nH]n3)cc2CS1(=O)=O (single isomer, unassigned) [Example 289b, cis-3-(3-((7-fluoro-1-(methyl-d3)-2,2-dioxido-1,3-dihydrobenzo[c]isothiazol-5-yl)amino)-1H-pyrazol-5-yl)cyclopentyl isopropylcarbamate]
22 | 5.8 | 425 | CC(C)NC(=O)O[C@H]1CC[C@@H](c2cc(Nc3ccc4c(c3F)CN(C)S4(=O)=O)n[nH]2)C1 (single isomer, unassigned) [Example 121a, cis-3-(3-((4-fluoro-2-methyl-1,1-dioxido-2,3-dihydrobenzo[d]isothiazol-5-yl)amino)-1H-pyrazol-5-yl)cyclopentyl isopropylcarbamate]
23 | 1.3 | 45 | CN1c2ccc(Nc3cc([C@@H]4CC[C@H](OC(=O)NC5CCC5)C4)[nH]n3)cc2CS1(=O)=O (single isomer, unassigned) [Example 227b, cis-3-(3-((1-methyl-2,2-dioxido-1,3-dihydrobenzo[c]isothiazol-5-yl)amino)-1H-pyrazol-5-yl)cyclopentyl cyclobutylcarbamate]
24 | 3.5 | 156 | CN1c2ccc(Nc3cc([C@@H]4CC[C@H](OC(=O)NC5CCC5)C4)[nH]n3)cc2CS1(=O)=O (single isomer, unassigned) [Example 227a, cis-3-(3-((1-methyl-2,2-dioxido-1,3-dihydrobenzo[c]isothiazol-5-yl)amino)-1H-pyrazol-5-yl)cyclopentyl cyclobutylcarbamate]

Source: patent US20260297080A1, “BICYCLIC COMPOUNDS AS CDK INHIBITORS” (BeOne Medicines I GmbH, priority 2022, published 2026)
